Assay results as given in US9260408B2, “Dihydroquinoline-2-one derivatives” (Hoffmann-La Roche Inc., priority 2011, dated 2016).
Where a name gives a salt, the structure may show the parent alone.

Columns and labels:
[1] = molecular target: T1, human CYP11B1 (Homo sapiens, UniProt P15538); assay: G-402 cellular enzyme assay, human CYP11B1 (cortisol release, HTRF); type: cell-based; conditions: G-402 cells expressing human CYP11B1; 1 μM Deoxycortisol
T1 construct: expressed in transfected cells
T1 sequence (P15538 25-503): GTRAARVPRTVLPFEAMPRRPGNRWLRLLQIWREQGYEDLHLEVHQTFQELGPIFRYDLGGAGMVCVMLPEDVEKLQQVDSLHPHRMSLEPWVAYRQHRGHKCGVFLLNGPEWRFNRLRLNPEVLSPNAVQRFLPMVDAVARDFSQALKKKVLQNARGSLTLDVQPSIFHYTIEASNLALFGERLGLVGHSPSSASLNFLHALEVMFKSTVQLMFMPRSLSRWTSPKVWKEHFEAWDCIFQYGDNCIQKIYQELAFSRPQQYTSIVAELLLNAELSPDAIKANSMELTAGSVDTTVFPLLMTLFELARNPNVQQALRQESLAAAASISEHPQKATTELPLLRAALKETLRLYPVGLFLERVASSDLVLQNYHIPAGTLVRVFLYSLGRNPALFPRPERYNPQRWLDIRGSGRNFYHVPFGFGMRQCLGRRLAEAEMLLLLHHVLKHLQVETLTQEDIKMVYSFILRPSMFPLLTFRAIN
Procedure, shortened: (§1)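 G-402 cells stably expressing human CYP11B2 or CYP11B1, in DMEM/F12 with 2.5% charcoal-treated FCS, were incubated 16 h with compound plus 1 μM deoxycorticosterone (CYP11B2) or 1 μM deoxycortisol (CYP11B1). Aldosterone or cortisol in the supernatant measured by HTRF; EC50 from a 4-parameter MMF fit.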

[2] = molecular target: T2, human CYP11B2 (Homo sapiens, UniProt P19099); assay: G-402 cellular enzyme assay, human CYP11B2 (aldosterone release, HTRF); type: cell-based; conditions: G-402 cells expressing human CYP11B2; 1 μM Deoxycorticosterone
T2 construct: expressed in transfected cells
T2 sequence (P19099 25-503): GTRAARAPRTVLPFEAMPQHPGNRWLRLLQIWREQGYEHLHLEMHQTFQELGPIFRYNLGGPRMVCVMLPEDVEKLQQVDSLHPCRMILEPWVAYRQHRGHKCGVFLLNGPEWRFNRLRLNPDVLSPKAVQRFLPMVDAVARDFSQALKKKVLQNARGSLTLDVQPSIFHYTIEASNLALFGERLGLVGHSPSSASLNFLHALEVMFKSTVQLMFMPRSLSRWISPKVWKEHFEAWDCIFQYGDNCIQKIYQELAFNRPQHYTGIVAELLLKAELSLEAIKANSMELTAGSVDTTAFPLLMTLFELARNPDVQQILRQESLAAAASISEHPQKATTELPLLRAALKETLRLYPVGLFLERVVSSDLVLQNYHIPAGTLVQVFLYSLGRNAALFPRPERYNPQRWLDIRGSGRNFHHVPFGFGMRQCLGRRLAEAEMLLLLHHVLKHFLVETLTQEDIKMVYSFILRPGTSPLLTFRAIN
Procedure, shortened: as §1

Compound	EC50 [1] [nM]	EC50 [2] [nM]
Cc1c(CNC(=O)c2ncccc2Cl)cncc1-c1cc2c(cc1F)N(C)C(=O)CC2 [Example 227, 3-Chloro-pyridine-2-carboxylic acid [5-(7-fluoro-1-methyl-2-oxo-1,2,3,4-tetrahydro-quinolin-6-yl)-4-methyl-pyridin-3-ylmethyl]-amide]	157	4
CCS(=O)(=O)NC(C)c1cncc(-c2cc3c(cc2F)N(C)C(=O)CC3)c1 (single isomer, unassigned) [Example 191, Ethanesulfonic acid {(S or R)-1-[5-(7-fluoro-1-methyl-2-oxo-1,2,3,4-tetrahydro-quinolin-6-yl)-pyridin-3-yl]-ethyl}-amide]	777	10
CN1C(=O)CCc2cc(-c3cncc(OC4CCN(C(=O)OC(C)(C)C)CC4)c3)ccc21 [Example 50, 4-[5-(1-Methyl-2-oxo-1,2,3,4-tetrahydro-quinolin-6-yl)-pyridin-3-yloxy]-piperidine-1-carboxylic acid tert-butyl ester]	24	3
CN1C(=O)CCc2cc(-c3cncc(CNS(=O)(=O)c4cnn(C)c4)c3)ccc21 [Example 159, 1-Methyl-1H-pyrazole-4-sulfonic acid [5-(1-methyl-2-oxo-1,2,3,4-tetrahydro-quinolin-6-yl)-pyridin-3-ylmethyl]-amide]	7930	180
CCC(=O)N1CC[C@@H](Oc2cncc(-c3cc4c(cc3F)N(C)C(=O)CC4)c2)C1 [Example 133]	837	10
CN1C(=O)CCc2cc(-c3cncc(OCCNC(=O)OC(C)(C)C)c3)ccc21 [Example 39, {2-[5-(1-Methyl-2-oxo-1,2,3,4-tetrahydro-quinolin-6-yl)-pyridin-3-yloxy]-ethyl}-carbamic acid tert-butyl ester]	120	10
CN1C(=O)CCc2cc(-c3cncc(CNC(=O)c4cccc(Cl)n4)c3)ccc21 [Example 114]	142	8
Cc1c(-c2cc3c(cc2F)N(C)C(=O)CC3)cncc1C(C)N[S@+]([O-])C(C)(C)C (single isomer, unassigned) [Example 252, (R)-2-Methyl-propane-2-sulfinic acid {(R or S)-1-[5-(7-fluoro-1-methyl-2-oxo-1,2,3,4-tetrahydro-quinolin-6-yl)-4-methyl-pyridin-3-yl]-ethyl}-amide]	468	26
CN(Cc1cncc(-c2ccc3c(c2)CCC(=O)N3C)c1Cl)C(=O)c1ncccc1Cl [Example 228, 3-Chloro-pyridine-2-carboxylic acid [4-chloro-5-(1-methyl-2-oxo-1,2,3,4-tetrahydro-quinolin-6-yl)-pyridin-3-ylmethyl]-methyl-amide]	356	9
Cc1noc(C)c1C(=O)NCc1cncc(-c2ccc3c(c2)CCC(=O)N3)c1 [Example 141, 3,5-Dimethyl-isoxazole-4-carboxylic acid [5-(2-oxo-1,2,3,4-tetrahydro-quinolin-6-yl)-pyridin-3-ylmethyl]-amide]	19900	856
Cc1noc(C)c1C(=O)NC(C)c1cncc(-c2ccc3c(c2)CCC(=O)N3C)c1 (single isomer, unassigned) [Example 135]	163	6
CN1C(=O)CCc2cc(-c3cncc(O[C@H]4CCCNC4)c3)ccc21 [Example 61, 1-Methyl-6-[5-((S)-piperidin-3-yloxy)-pyridin-3-yl]-3,4-dihydro-1H-quinolin-2-one]	20100	508
CC(C)CC(=O)NCc1cncc(-c2ccc3c(c2)CCC(=O)N3C)c1 [Example 77]	223	42
CN1C(=O)CCc2cc(-c3cncc(CNC(=O)c4ncccn4)c3)ccc21 [Example 99]	1120	35
CN1C(=O)CCc2cc(-c3cncc(O[C@@H]4CCN(C(=O)OC(C)(C)C)C4)c3)c(F)cc21 [Example 46, (R)-3-[5-(7-Fluoro-1-methyl-2-oxo-1,2,3,4-tetrahydro-quinolin-6-yl)-pyridin-3-yloxy]-pyrrolidine-1-carboxylic acid tert-butyl ester]	298	5
CN1C(=O)CCc2cc(-c3cncc(NC(=O)CO)c3)ccc21 [Example 3, 2-Hydroxy-N-[5-(1-methyl-2-oxo-1,2,3,4-tetrahydro-quinolin-6-yl)-pyridin-3-yl]-acetamide]	> 3000	715

Compound	EC50 [1] [nM]	EC50 [2] [nM]
CN1C(=O)CCc2cc(-c3cncc(N4CCC[C@H]4CO)c3)ccc21 [Example 5, 6-[5-((S)-2-Hydroxymethyl-pyrrolidin-1-yl)-pyridin-3-yl]-1-methyl-3,4-dihydro-1H-quinolin-2-one]	1080	19
CN1C(=O)CCc2cc(-c3cncc(O[C@H]4CCN(C(=O)OC(C)(C)C)C4)c3)ccc21 [Example 48, (S)-3-[5-(1-Methyl-2-oxo-1,2,3,4-tetrahydro-quinolin-6-yl)-pyridin-3-yloxy]-pyrrolidine-1-carboxylic acid tert-butyl ester]	392	49
CN1C(=O)CCc2cc(-c3cncc(C4(NC(=O)c5ncccc5Cl)CC4)c3)c(F)cc21 [Example 142]	380	3
CN1C(=O)CCc2cc(-c3cncc(C4(N)COC4)c3)ccc21 [Example 69, 6-[5-(3-Amino-oxetan-3-yl)-pyridin-3-yl]-1-methyl-3,4-dihydro-1H-quinolin-2-one hydrochloride]	3490	411
CCC(=O)NCCOc1cncc(-c2ccc3c(c2)CCC(=O)N3C)c1 [Example 43, N-{2-[5-(1-Methyl-2-oxo-1,2,3,4-tetrahydro-quinolin-6-yl)-pyridin-3-yloxy]-ethyl}-propionamide]	1560	40
CN1C(=O)CCc2cc(-c3cncc(OC4CN(C(=O)OC(C)(C)C)C4)c3)ccc21 [Example 47, 3-[5-(1-Methyl-2-oxo-1,2,3,4-tetrahydro-quinolin-6-yl)-pyridin-3-yloxy]-azetidine-1-carboxylic acid tert-butyl ester]	61	3
CCC(=O)NC1(c2cncc(-c3ccc4c(c3)CCC(=O)N4C)c2)COC1 [Example 130]	10500	162
CCS(=O)(=O)NCc1cncc(-c2cc(Cl)c3c(c2)CCC(=O)N3)c1 [Example 203, Ethanesulfonic acid [5-(8-chloro-2-oxo-1,2,3,4-tetrahydro-quinolin-6-yl)-pyridin-3-ylmethyl]-amide]	4960	83
Cc1noc(C)c1C(=O)NCc1cncc(-c2cc3c(cc2F)N(C)C(=O)CC3)c1 [Example 127]	400	12
CCS(=O)(=O)NC(C)c1cncc(-c2cc3c(cc2F)N(C)C(=O)CC3)c1 (racemic) [Example 178, (rac)-Ethanesulfonic acid {1-[5-(7-fluoro-1-methyl-2-oxo-1,2,3,4-tetrahydro-quinolin-6-yl)-pyridin-3-yl]-ethyl}-amide]	535	10
Cc1nocc1C(=O)NCc1cncc(-c2ccc3c(c2)CCC(=O)N3C)c1 [Example 92]	632	16
CN1C(=O)CCc2cc(-c3cncc(CNS(=O)(=O)c4cccc(Cl)c4)c3)ccc21 [Example 152, 3-Chloro-N-[5-(1-methyl-2-oxo-1,2,3,4-tetrahydro-quinolin-6-yl)-pyridin-3-ylmethyl]-benzenesulfonamide]	4750	154
CCS(=O)(=O)N(C)CCOc1cncc(-c2ccc3c(c2)CCC(=O)N3C)c1 [Example 195, Ethanesulfonic acid methyl-{2-[5-(1-methyl-2-oxo-1,2,3,4-tetrahydro-quinolin-6-yl)-pyridin-3-yloxy]-ethyl}-amide]	56	1
CN1C(=O)CCc2cc(-c3cncc(CNC(=O)c4cnc(Cl)cn4)c3)ccc21 [Example 125]	154	3
CC(N[S@+]([O-])C(C)(C)C)c1cncc(-c2ccc3c(c2)CCC(=O)N3C)c1Cl (single isomer, unassigned) [Example 249, (R)-2-Methyl-propane-2-sulfinic acid {(R or S)-1-[4-chloro-5-(1-methyl-2-oxo-1,2,3,4-tetrahydro-quinolin-6-yl)-pyridin-3-yl]-ethyl}-amide]	261	14
